Measurements as given in patent EP1379634B1 (THE UNIVERSITY OF GEORGIA RESEARCH FOUNDATION, INC., priority 2001, dated 2002).
Residues, ends and D or L forms follow the SMILES beside them. *: point of attachment. Cbz = O=C(OCc1ccccc1)*; CH2F = FC*

Tests used:
[1] = test system: Taenia crassiceps cysts; experiment: Scanning electron microscopy of cyst surfaces removed from treated mice; type: in vivo; conditions: cysts removed from treated BALB/c mice
From the text: • Figure 1. Free energy diagrams for various profiles and scenarios of enzyme catalysis; from Murphy, 1995. Biochemistry. 34(14):4507-4510: (a) Free energy diagrams for different concentrations of substrate S in catalyzed and in uncatalyzed reactions. Left panel: Profile I. S<Km such that enzyme is in a "loose" binding configuration with substrate. Right panel: Profile II. S>Km such that the enzyme is in a "tight" binding configuration with the substrate. Nomenclature below the figure indicates derivation of various free energy constants which are referred to in the text. […] In this scenario, the transition state is decreased from TSC1 to TSC2 resulting in a net increase of ΔGB from situation 1 to situation 2. […] Since ΔGES is unchanged in this plot, 100% of the additional binding energy is utilized for catalysis. This property and the increase in ΔAGb is the definition of a catalytic event driven by transition state stabilization, with the latter being the defining catalytic parameter; (c) free energy diagram for catalysis driven by ground state destabilization for a Profile II scenario where ES is decreased and TSC is not changed. From the left panel to the right panel, ES is decreased, whereas TS remains unchanged. Consequently, ΔΔGb remains constant although catalysis is noted (thus the free energy of enzyme/transition state binding is unchanged). […]

[2] = target: T1, Cathepsin H (Homo sapiens, UniProt P09668); experiment: Selectivity test (Steps VI and IX), Cathepsin H; type: biochemical; conditions: vehicle 4 X 10^-5 M; pH 6.8, substrate L-R-AFC; 40 µM
T1 sequence (P09668 98-335): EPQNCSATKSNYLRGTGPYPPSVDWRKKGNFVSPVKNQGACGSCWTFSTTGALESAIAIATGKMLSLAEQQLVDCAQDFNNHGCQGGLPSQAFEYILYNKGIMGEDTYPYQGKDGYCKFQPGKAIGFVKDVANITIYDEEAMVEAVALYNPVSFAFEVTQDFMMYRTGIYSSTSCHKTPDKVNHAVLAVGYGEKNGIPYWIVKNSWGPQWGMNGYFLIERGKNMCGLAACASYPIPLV
Procedure: (§1) In order to perform the assay, the vehicle (for Step VI) or inhibitor (for Step IX) were incubated with the appropriate substrate in the correct assay buffer and allowed to equilibrate. Subsequently, the protease was added, and the assay was allowed to incubate for an appropriate time. The concentrations used in this experiment were as follows: Vehicle was set up at 4 X 10^-5 M in final assay buffer; Inhibitor was set up at 3 X 10^-10 M in the final assay buffer. Preferably the dosages employed should be the minimal amount of vehicle or inhibitor necessary to induce inhibition. […] Substrates were set up based upon the preferred substrate for cleavage of the particular enzyme.
(§2) Positive controls were set up similarly as described for test controls, except that a solvent blank was added in substitution for the inhibitor or vehicle (in a volume equal to the volume of inhibitor or vehicle addition). All of the inhibitors and vehicles could be dissolved in dimethylsulfoxide (DMSO), and therefore, this was the solvent of choice. Negative controls were set up by adding the inhibitor or vehicle and the preferred substrates in a tube without the protease. […]
(§3) Percent inhibition was calculated as: %Inhibition = ((AFC positive for "SI"−AFC negative for "SI")−(AFC test−AFC negative for "SI"))/(AFC positive for "SI"−AFC negative for "SI") × 100 [formula] […]

[3] = target: Cathepsin D (Homo sapiens, UniProt P07339); experiment: Selectivity test (Steps VI and IX), Cathepsin D; type: biochemical; conditions: vehicle 4 X 10^-5 M; pH 7.1, substrate Z-RGFFP-AFC; 40 µM
Procedure: as §1, §2, §3

Chain of Cathepsin D (P07339 65-412): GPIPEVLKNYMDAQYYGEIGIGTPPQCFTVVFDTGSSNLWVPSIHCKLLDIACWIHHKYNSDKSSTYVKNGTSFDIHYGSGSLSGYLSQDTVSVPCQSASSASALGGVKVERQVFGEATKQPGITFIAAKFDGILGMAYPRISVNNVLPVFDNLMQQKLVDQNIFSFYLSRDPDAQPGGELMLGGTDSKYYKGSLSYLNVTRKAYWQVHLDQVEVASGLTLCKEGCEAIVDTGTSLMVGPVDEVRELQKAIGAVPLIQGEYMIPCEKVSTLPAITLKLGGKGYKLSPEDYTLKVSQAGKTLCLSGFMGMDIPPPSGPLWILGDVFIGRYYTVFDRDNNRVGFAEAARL

Row | Compound | Immune cells observed by SEM on cyst surfaces [1] | % inhibition [2] | % inhibition [3]
1 | CC(C)C[C@H](NC(=O)OCc1ccccc1)C(=O)N[C@@H](CC(C)C)C(=O)N[C@@H](Cc1ccc(O)cc1)C(=O)CF [Z-LLY-FMK, Z-Leu-Leu-Tyr-FMK] (Cbz-Leu-Leu-Tyr-CH2F) | presence of adherent immune cells | – | –
2 | Mu-Leu-Tyr-AFC [Mu-LY-AFC] | – | 0% | 0%
